Assay results from the CheMixHub viscosity set.

Assay: xn = mol fraction of the nth substance listed

CCCCC(=O)O + CCCCCCCO
viscosity [mPa·s], 100 kPa
Conditions	x1 = 0.0814	x1 = 0.1667	x1 = 0.2436	x1 = 0.3521	x1 = 0.4395	x1 = 0.5617	x1 = 0.6566	x1 = 0.7424	x1 = 0.8518	x1 = 0.9437
293.15 K	6.67	6.29	5.94	5.44	5.02	4.43	3.96	3.54	2.99	2.53
303.15 K	4.79	4.54	4.31	3.98	3.7	3.31	3	2.72	2.36	2.06
313.15 K	3.52	3.32	3.14	2.9	2.72	2.46	2.27	2.09	1.87	1.68
323.15 K	2.66	2.53	2.42	2.26	2.13	1.96	1.83	1.71	1.56	1.43

CCCCC(=O)O + CCCCCCO
viscosity [mPa·s], 100 kPa
Conditions	x1 = 0.0922	x1 = 0.1786	x1 = 0.2643	x1 = 0.3791	x1 = 0.4723	x1 = 0.5917	x1 = 0.6782	x1 = 0.7647	x1 = 0.8655	x1 = 0.9463
293.15 K	5.13	4.89	4.64	4.3	4	3.61	3.33	3.04	2.7	2.43
303.15 K	3.78	3.63	3.47	3.24	3.04	2.79	2.6	2.4	2.17	1.99
313.15 K	2.84	2.74	2.63	2.49	2.36	2.18	2.06	1.93	1.78	1.65
323.15 K	2.18	2.11	2.03	1.93	1.85	1.74	1.66	1.57	1.48	1.4

NCCNCCN + CCCCCCO
viscosity [mPa·s], 101 kPa
Conditions	298.15 K	303.15 K	308.15 K
x1 = 0.0573	5.116	4.247	3.626
x1 = 0.1064	5.533	4.59	3.929
x1 = 0.1567	5.928	4.857	4.134
x1 = 0.2089	6.207	5.066	4.274
x1 = 0.2683	6.373	5.168	4.367
x1 = 0.2986	6.429	5.206	4.393
x1 = 0.4054	6.424	5.195	4.362
x1 = 0.5082	6.261	5.038	4.22
x1 = 0.6024	5.991	4.851	4.058
x1 = 0.7078	5.825	4.666	3.925
x1 = 0.7906	5.648	4.568	3.857
x1 = 0.8419	5.594	4.524	3.828
x1 = 0.9102	5.589	4.493	3.81
x1 = 0.9579	5.579	4.478	3.801

CCCCC(=O)O + CCCCCO
viscosity [mPa·s], 100 kPa
Conditions	x1 = 0.0805	x1 = 0.1593	x1 = 0.2392	x1 = 0.3508	x1 = 0.4406	x1 = 0.5609	x1 = 0.6497	x1 = 0.7392	x1 = 0.8517	x1 = 0.9395
293.15 K	3.93	3.83	3.71	3.54	3.38	3.15	2.98	2.79	2.56	2.37
303.15 K	2.98	2.92	2.85	2.74	2.63	2.48	2.36	2.24	2.08	1.96
313.15 K	2.29	2.25	2.21	2.14	2.07	1.97	1.9	1.82	1.71	1.63
323.15 K	1.79	1.76	1.73	1.68	1.64	1.58	1.54	1.49	1.43	1.38

Oc1cccc2ccccc12 + CCCCCOC(C)=O
Conditions	viscosity [mPa·s]
298.15 K, 101 kPa, x2 = 0.5	1.549

Oc1cccc(O)c1 + CCCCO
Conditions	viscosity [mPa·s]
293.15 K, 101 kPa, x1 = 0.28	19.75

Oc1cccc2ccccc12 + CCCCO
viscosity [mPa·s], 101 kPa
Conditions	x1 = 0.04	x1 = 0.08	x1 = 0.12	x1 = 0.16	x1 = 0.2
293.15 K	3.278	3.6	3.953	4.407	4.888
303.15 K	2.489	2.719	2.974	3.265	3.61
313.15 K	1.952	2.106	2.289	2.512	2.745
323.15 K	1.56	1.685	1.816	1.966	2.14

Oc1cccc(O)c1O + CCCC[N+](CCCC)(CCCC)CCCC.[Br-]
101.3 kPa, x2 = 0.5
Conditions	viscosity [mPa·s]
293.15 K	30000
298.15 K	18500
303.15 K	11000
308.15 K	6000
313.15 K	3250
318.15 K	1850
323.15 K	1200

NCCNCCN + CCCCn1cc[n+](C)c1.F[B-](F)(F)F
Conditions	viscosity [mPa·s]
313.15 K, 101.33 kPa, x2 = 0.8948	46.45

CCCCOCCOCCOCCCC + CCCN
298.15 K, 101 kPa
Conditions	viscosity [mPa·s]
x1 = 0.0095	0.375
x1 = 0.0288	0.417
x1 = 0.0455	0.45
x1 = 0.0845	0.529
x1 = 0.1266	0.622
x1 = 0.1754	0.719
x1 = 0.2172	0.806
x1 = 0.2531	0.87
x1 = 0.266	0.904
x1 = 0.3172	0.994
x1 = 0.3559	1.055
x1 = 0.3977	1.129
x1 = 0.4621	1.24
x1 = 0.516	1.33
x1 = 0.5979	1.489
x1 = 0.6482	1.579
x1 = 0.6986	1.689
x1 = 0.7471	1.774
x1 = 0.7956	1.869
x1 = 0.8618	2.01
x1 = 0.9261	2.093
x1 = 0.9641	2.143

CCCCO + CCCO
Conditions	viscosity [mPa·s]
293.15 K, 101.33 kPa, x2 = 0.152	2.84
293.15 K, 101.33 kPa, x2 = 0.3302	2.715
293.15 K, 101.33 kPa, x2 = 0.5008	2.566
293.15 K, 101.33 kPa, x2 = 0.616	2.474
293.15 K, 101.33 kPa, x2 = 0.7172	2.41
293.15 K, 101.33 kPa, x2 = 0.8933	2.282
298.15 K, 101 kPa, x1 = 0.1009	2.024
298.15 K, 101 kPa, x1 = 0.2	2.082
298.15 K, 101 kPa, x1 = 0.3013	2.135
298.15 K, 101 kPa, x1 = 0.4026	2.194
298.15 K, 101 kPa, x1 = 0.5009	2.254
298.15 K, 101 kPa, x1 = 0.6055	2.319
298.15 K, 101 kPa, x1 = 0.6279	2.326
298.15 K, 101 kPa, x1 = 0.7983	2.432
298.15 K, 101 kPa, x1 = 0.8992	2.494
298.15 K, 101.33 kPa, x2 = 0.1147	2.507
298.15 K, 101.33 kPa, x2 = 0.3211	2.378
298.15 K, 101.33 kPa, x2 = 0.4966	2.261
298.15 K, 101.33 kPa, x2 = 0.6315	2.172
298.15 K, 101.33 kPa, x2 = 0.7297	2.118
298.15 K, 101.33 kPa, x2 = 0.9322	2.001

CCCCOCCOCCOCCCC + CCCO
298.15 K, 101.33 kPa
Conditions	viscosity [mPa·s]
x1 = 0.0034	1.944
x1 = 0.0097	1.937
x1 = 0.0158	1.93
x1 = 0.0252	1.917
x1 = 0.0426	1.895
x1 = 0.0734	1.866
x1 = 0.0979	1.849
x1 = 0.1509	1.832
x1 = 0.1955	1.824
x1 = 0.2419	1.827
x1 = 0.2937	1.837
x1 = 0.3481	1.851
x1 = 0.3959	1.868
x1 = 0.4376	1.884
x1 = 0.4827	1.901
x1 = 0.54	1.925
x1 = 0.5983	1.949
x1 = 0.6416	1.968
x1 = 0.6954	1.99
x1 = 0.7531	2.016
x1 = 0.8095	2.039
x1 = 0.8656	2.061
x1 = 0.9083	2.079
x1 = 0.9447	2.096
x1 = 0.9742	2.111

Oc1cccc(O)c1 + CCCO
viscosity [mPa·s], 101 kPa
Conditions	293.15 K	303.15 K	323.15 K
x1 = 0.07	3.605	–	1.675
x1 = 0.28	–	12.05	–

Oc1cccc2ccccc12 + CCCO
viscosity [mPa·s], 101 kPa
Conditions	x1 = 0.04	x1 = 0.08	x1 = 0.12	x1 = 0.16	x1 = 0.2
293.15 K	2.564	2.904	3.349	3.844	4.423
303.15 K	1.999	2.245	2.528	2.863	3.26
313.15 K	1.592	1.696	1.867	2.114	2.396
323.15 K	1.293	1.403	1.567	1.748	1.954

NCCNCCN + CCN(CC)CCO
viscosity [mPa·s], 101 kPa
Conditions	x1 = 0.1	x1 = 0.1999	x1 = 0.2999	x1 = 0.3997	x1 = 0.4997	x1 = 0.5997	x1 = 0.6996	x1 = 0.7992	x1 = 0.8989
293.15 K	6.36	7.21	8	8.32	8.45	8.11	7.8	7.34	7.02
303.15 K	4.38	4.95	5.25	5.5	5.64	5.52	5.31	5.08	4.89
313.15 K	3.14	3.46	3.72	3.92	4.02	3.94	3.8	3.62	3.52
323.15 K	2.28	2.54	2.72	2.9	3	2.95	2.88	2.77	2.69
